{
  "source": "patent US20100048723A1",
  "about": "“Compositions and Methods for Preventing or Treating Obesity In Animals” (priority 2007, published 2010)",
  "test_system": "canine genes",
  "assay": "Canine cell culture genomic assay: modification of gene expression in vitro (Affymetrix canine gene chips)",
  "assay_type": "cell-based",
  "parameters": "key: those genes that are modified by capsaicin are identified by an asterix (*)",
  "details": "canine cell lines CCL34, CRL1430, CCL183, CTAC; up or down regulation",
  "method": "We have compiled a database of substances known to modify the expression of various canine genes in canine cells in vitro according to the following methods provided below and previously described (see, e.g., U.S. 2006-0200320 Al).\nTest substances are assayed in two concentrations using the following canine cell lines: CCL34 (kidney), CRL1430 (thymus), CCL183 (bone) (all obtained from the American Tissue Culture Collection) and CTAC (thyroid) (see, Measurement of NK Activity in Effector Cells Purified from Canine Peripheral Lymphocytes, Veterinary Immunology and Immunopathology, 35 (1993) 239-25 1). Briefly, cells are cultured in OptiCell chambers according to conventional methods and the next day treated with test substance. The solvent used at the higher of the two concentrations is used as a control. The following day the cells are harvested for genomic assay.\nRNA is isolated from the canine cultures using commercially available methods, e.g., an RNAeasy Mini Kit (Qiagen, Valencia, Calif.) according to the manufacturers instructions and conventional methods. The quality of the isolated RNA is analyzed using a RNA 6000 Nano Assay and an Agilent 2100 Bioanalyzer. The procedure is performed according to the manufacturer's instructions provided in the Reagent Kit Guide (see Edition November 2003, by Agilent Technologies) with the following modifications: during gel preparation, rather than separating the filtered gel into aliquots of 65 uL each, the stock filtered gel is kept in the original microcentrifuge tube and the 65 uL is aliquoted as needed; while loading the RNA 6000 Nano Marker, 1 uL of RNase-free water (instead of RNA 6000 Nano Marker) is added to each sample well that will not contain sample. When loading the RNA 6000 Ladder and samples, heat denature the samples and RNA 6000 Ladder for an additional 30 seconds (total of 2.5 minutes) at 71° C.; with regard to “Starting the Chip Run”, choose the “Eukaryote Total RNA Nano” option from the assay menu.\nGene expression is measured for the treatment cell lines and controls using Affymetrix canine gene chips Canine-1 and Canine-2 according to the manufacturer's instructions. Gene expression data is determined to be either “up” or “down”-regulated for any given treatment. The decision on whether a gene is “up” or “down” is based on the fold change, which is calculated as treatment intensity/control intensity for each individual probe. […] Also, a probe is considered significant for further scrutiny if it is called as “present” in only one of the conditions being compared (treatment or control) and is “absent” or “marginal” in the other and the fold change is significant according to the software used. Probes that appear to be regulated in opposite directions in the two treatments are excluded from further analysis. The raw data is analyzed using GeneSpring version 7.0 (GS) software (Agilent Corporation) and validated using the R-Bioconductor (RB) freeware. Both software packages are used to compute probe intensities from the CEL files generated by the Affymetrix Instrument. The Present/Absent/Marginal calls per probe and P-values are computed using the R-Bioconductor and GeneSpring software separately.\nTwo schemes are used for data analysis. First: “across cell lines” and “within individual cell lines.” In the first scheme, genes are selected for scoring provided they are found to be significant and common across all cell-lines. The “across cell lines” yields the highest confidence data with minimum noise and may provide the best possible clues as to which genes are affected by individual ingredients. In the second scheme, only those genes that show a significant fold change in the two treatments according to both software packages within an individual cell lines are scored.\nTable 1A provided hereinabove is a list of canine genes the expression of which is modified in vitro in the presence of various compounds. […]",
  "note": "Marks after values point to notes of the source that are not given here.",
  "data": [
    {"molecule": "COc1cc(CNC(=O)CCCCC=CC(C)C)ccc1O", "note": "[capsaicin, 8-methyl-N-vanillyl-6-nonenamide]", "values": [
      {"measurement": "expression of Complement component 4 modified in canine cells in vitro", "result": "Complement component 4 *"},
      {"measurement": "expression of Fragilis/homolog to rat interferon-inducible protein modified in canine cells in vitro", "result": "protein*"},
      {"measurement": "expression of Homolog to Homo sapiens interferon-induced 35-kDa protein modified in canine cells in vitro", "result": "kDa protein*"},
      {"measurement": "expression of L-Plastin/lymphocyte cytosolic protein 1 modified in canine cells in vitro", "result": "L-Plastin/lymphocyte cytosolic protein 1*"},
      {"measurement": "expression of α Cytochrome b558/cytochrome b-245 modified in canine cells in vitro", "result": "^α Cytochrome b558/cytochrome b-245 *"},
      {"measurement": "expression of α Tubulin, 1 modified in canine cells in vitro", "result": "^α Tubulin, 1 *"}
    ]}
  ]
}
